As a reminder, the EC50 is the concentration that produces a half-maximal response. The IC50 is the concentration that gives 50% inhibition.

For three molecules, EC50 and IC50 results are on record in ChEMBL document CHEMBL1201862, “PubChem BioAssay data set” (2004).

SMILES strings stand for the structures. Active and inactive are the calls of the source.

Holding throughout (format): functional
The target of assay [1] is T1, Kappa-type opioid receptor (Homo sapiens, UniProt P41145).
The target in assay [2] is T1, Kappa-type opioid receptor. This is another data set of the same source.
For assay [3], the target named is T2, Delta-type opioid receptor (Homo sapiens, UniProt P41143). In words: HTS Image-Based Screen for Agonists of the DOR Receptor. [Related pubchem assays (depositor defined):AID1777, AID1786, AID2133].
T2 sequence (P41143 whole entry): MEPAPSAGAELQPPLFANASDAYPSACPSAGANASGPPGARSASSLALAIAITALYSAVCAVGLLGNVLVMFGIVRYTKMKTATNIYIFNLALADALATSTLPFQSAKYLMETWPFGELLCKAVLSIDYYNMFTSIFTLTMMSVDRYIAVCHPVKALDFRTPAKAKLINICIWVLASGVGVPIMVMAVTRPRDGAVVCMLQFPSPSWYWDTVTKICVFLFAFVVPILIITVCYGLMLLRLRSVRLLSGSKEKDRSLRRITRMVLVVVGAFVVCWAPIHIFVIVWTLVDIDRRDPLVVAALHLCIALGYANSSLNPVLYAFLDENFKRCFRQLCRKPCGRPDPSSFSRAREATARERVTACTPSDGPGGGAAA
A further assay addresses Mu-type opioid receptor (Homo sapiens, UniProt P35372). In words: HTS Image-Based Screen for Agonists of the MOR Receptor. [Related pubchem assays (depositor defined):AID1777, AID1785, AID1786, AID2133].
The target of assay [4] is T2, Delta-type opioid receptor. In words: HTS Image-Based Screen for Antagonists of the DOR Receptor. [Related pubchem assays (depositor defined):AID1777, AID1785, AID1786, AID2133].
For assay [5], the target named is T3, G-protein coupled receptor 55 (Homo sapiens, UniProt Q9Y2T6). In words: inhibition of LPI-stimulated GPR55 beta-arrestin translocation – imaging, U2OS, beta-arrestin-GFP, LPI agonist, primary screen (AID 2013).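 Note: antagonist potency measured as reduced agonist-driven arrestin aggregation.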
T3 sequence (Q9Y2T6 whole entry): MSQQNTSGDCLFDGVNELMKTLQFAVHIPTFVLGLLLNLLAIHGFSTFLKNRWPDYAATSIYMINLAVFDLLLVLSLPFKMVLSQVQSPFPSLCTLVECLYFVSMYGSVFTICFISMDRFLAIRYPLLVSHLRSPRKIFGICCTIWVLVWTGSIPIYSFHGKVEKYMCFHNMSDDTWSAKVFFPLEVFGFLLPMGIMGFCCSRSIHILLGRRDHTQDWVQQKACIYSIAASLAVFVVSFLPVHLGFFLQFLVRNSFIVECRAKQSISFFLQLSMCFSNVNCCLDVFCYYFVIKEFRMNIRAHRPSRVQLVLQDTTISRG
Assay [6] has as its target T3, G-protein coupled receptor 55. In words: blockade of LPI-induced GPR55 arrestin translocation – imaging, U2OS, beta-arrestin-GFP, LPI agonist, set 2, SAR follow-up (AID 2820).
In assay [7] the target is T4, Cannabinoid receptor 2 (Homo sapiens, UniProt P34972). In words: SAR analysis of antagonists of the Cannabinoid Receptor 2 using an Image-Based Assay. [Related pubchem assays (depositor defined):AID2013, AID2026].
T4 sequence (P34972 whole entry): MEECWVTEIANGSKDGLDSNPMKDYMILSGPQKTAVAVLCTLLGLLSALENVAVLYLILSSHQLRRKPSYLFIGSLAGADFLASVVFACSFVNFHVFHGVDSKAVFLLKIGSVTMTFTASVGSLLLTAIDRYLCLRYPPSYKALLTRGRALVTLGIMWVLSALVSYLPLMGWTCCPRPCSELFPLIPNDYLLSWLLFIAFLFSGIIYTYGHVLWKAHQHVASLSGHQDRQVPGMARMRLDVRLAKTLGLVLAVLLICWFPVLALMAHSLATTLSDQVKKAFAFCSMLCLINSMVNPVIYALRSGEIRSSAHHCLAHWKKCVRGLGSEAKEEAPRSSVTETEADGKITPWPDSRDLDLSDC
For assay [8], the target named is T5, G-protein coupled receptor 35 (Homo sapiens, UniProt Q9HC97). In words: SAR analysis of Antagonists of the GPR35 Receptor using an Image-Based Assay - Set 3. [Related pubchem assays (depositor defined):AID2013, AID2026].
T5 sequence (Q9HC97 whole entry): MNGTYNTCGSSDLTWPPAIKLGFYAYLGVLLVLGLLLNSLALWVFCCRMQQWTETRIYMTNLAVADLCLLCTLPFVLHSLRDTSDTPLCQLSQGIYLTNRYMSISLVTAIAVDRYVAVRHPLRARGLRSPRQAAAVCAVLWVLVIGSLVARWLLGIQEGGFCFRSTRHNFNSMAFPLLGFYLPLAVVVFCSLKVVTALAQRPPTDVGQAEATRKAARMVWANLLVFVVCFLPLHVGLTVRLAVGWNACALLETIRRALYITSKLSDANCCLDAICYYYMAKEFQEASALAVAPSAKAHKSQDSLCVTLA
In assay [9] the target is T6, Cannabinoid receptor 1 (Homo sapiens, UniProt P21554). In words: SAR analysis of antagonists of the Cannabinoid Receptor 1 using an Image-Based Assay - Set 2. [Related pubchem assays (depositor defined):AID2013, AID2026].
T6 sequence (P21554 whole entry): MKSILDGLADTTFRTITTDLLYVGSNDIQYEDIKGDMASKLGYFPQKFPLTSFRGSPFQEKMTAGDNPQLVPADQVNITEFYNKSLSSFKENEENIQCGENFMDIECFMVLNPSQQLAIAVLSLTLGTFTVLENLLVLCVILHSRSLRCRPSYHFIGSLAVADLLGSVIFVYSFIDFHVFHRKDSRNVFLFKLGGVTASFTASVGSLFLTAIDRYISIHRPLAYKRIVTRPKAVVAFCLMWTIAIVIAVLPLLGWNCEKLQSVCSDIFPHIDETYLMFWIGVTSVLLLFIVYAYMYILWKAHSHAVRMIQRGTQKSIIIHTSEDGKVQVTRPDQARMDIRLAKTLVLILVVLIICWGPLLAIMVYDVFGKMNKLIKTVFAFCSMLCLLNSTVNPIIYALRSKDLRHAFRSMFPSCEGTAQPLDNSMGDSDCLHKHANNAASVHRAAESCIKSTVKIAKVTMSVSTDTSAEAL
The target in assay [10] is T6, Cannabinoid receptor 1. In words: SAR analysis of agonists of the Cannabinoid Receptor 1 using an Image-Based Assay - Set 2. [Related pubchem assays (depositor defined):AID2013, AID2026].
Assay [11] deals with T4, Cannabinoid receptor 2. In words: SAR analysis of agonists of the Cannabinoid Receptor 2 using an Image-Based Assay. [Related pubchem assays (depositor defined):AID2013, AID2026].
The target in assay [12] is T5, G-protein coupled receptor 35. In words: SAR analysis of Agonists of the GPR35 Receptor using an Image-Based Assay - Set 2. [Related pubchem assays (depositor defined):AID2013, AID2026].
In assay [13] the target is T7, Alkaline phosphatase, tissue-nonspecific isozyme (Homo sapiens, UniProt P05186).
T7 sequence (P05186 whole entry): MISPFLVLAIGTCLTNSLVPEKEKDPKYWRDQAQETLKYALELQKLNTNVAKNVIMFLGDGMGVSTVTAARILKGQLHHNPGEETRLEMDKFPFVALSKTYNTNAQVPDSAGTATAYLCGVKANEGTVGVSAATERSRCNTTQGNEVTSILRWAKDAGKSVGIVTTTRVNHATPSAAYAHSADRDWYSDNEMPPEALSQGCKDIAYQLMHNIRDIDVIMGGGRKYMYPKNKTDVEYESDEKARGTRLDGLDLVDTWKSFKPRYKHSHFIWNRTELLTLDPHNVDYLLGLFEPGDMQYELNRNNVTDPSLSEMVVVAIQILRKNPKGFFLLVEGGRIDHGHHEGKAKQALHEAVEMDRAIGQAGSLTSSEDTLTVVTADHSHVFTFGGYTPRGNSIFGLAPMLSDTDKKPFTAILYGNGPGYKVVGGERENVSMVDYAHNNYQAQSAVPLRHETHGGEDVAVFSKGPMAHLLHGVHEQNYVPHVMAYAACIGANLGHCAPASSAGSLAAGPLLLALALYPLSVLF
In words: TNAP enzyme inhibition by screening hits, dose response, selectivity assay for mouse IAP inhibitor project, biochemical, human TNAP, uHTS hits (AID 488906).

Assay [14] addresses Intestinal-type alkaline phosphatase (Homo sapiens, UniProt P09923). In words: inhibition of human intestinal alkaline phosphatase – biochemical, dose response (AID 488876).
For assay [15], the target named is Intestinal-type alkaline phosphatase (Mus musculus, UniProt P24822). In words: PubChem AID 488785.
Chain of Intestinal-type alkaline phosphatase (Mus musculus, UniProt P24822) (P24822 whole entry): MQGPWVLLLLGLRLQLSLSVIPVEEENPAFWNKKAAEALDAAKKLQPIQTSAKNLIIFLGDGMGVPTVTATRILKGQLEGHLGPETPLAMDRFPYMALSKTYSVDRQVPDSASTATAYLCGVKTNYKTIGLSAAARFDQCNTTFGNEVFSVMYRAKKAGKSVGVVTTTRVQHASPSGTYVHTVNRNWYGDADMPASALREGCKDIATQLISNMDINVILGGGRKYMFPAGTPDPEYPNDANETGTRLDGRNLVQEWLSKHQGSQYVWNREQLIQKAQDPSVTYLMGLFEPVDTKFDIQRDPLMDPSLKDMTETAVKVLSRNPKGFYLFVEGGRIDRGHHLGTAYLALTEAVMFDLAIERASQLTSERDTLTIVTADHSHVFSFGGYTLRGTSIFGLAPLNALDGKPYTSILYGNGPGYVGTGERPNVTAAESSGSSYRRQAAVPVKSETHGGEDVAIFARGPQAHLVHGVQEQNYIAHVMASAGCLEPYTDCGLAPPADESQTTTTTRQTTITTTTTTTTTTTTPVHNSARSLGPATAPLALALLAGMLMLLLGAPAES

T1 sequence (P41145 whole entry): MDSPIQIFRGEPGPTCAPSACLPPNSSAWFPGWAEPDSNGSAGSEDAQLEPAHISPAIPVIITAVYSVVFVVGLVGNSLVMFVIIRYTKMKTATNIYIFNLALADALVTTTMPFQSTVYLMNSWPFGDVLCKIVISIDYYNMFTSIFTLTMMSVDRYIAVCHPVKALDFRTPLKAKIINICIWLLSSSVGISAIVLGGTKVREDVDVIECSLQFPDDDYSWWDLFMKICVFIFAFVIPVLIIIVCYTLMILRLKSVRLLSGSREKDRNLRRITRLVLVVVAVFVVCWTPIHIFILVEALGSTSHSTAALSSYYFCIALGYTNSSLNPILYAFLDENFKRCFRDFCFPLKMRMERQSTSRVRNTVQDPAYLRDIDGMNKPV
Chain of Intestinal-type alkaline phosphatase (Homo sapiens, UniProt P09923) (P09923 whole entry): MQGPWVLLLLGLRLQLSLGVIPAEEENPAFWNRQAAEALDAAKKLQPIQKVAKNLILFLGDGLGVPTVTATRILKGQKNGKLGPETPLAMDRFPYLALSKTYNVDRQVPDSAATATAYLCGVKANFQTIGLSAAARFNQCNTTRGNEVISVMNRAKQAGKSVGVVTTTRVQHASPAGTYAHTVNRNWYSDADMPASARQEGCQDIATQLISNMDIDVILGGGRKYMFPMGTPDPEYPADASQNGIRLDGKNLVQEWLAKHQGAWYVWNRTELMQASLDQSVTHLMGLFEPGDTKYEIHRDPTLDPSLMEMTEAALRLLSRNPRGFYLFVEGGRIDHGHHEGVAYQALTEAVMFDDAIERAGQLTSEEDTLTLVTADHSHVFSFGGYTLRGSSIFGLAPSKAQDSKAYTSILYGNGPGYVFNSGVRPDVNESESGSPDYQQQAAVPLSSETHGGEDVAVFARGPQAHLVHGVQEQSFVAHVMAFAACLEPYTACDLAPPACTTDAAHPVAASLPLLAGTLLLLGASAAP
Chain of Mu-type opioid receptor (P35372 whole entry): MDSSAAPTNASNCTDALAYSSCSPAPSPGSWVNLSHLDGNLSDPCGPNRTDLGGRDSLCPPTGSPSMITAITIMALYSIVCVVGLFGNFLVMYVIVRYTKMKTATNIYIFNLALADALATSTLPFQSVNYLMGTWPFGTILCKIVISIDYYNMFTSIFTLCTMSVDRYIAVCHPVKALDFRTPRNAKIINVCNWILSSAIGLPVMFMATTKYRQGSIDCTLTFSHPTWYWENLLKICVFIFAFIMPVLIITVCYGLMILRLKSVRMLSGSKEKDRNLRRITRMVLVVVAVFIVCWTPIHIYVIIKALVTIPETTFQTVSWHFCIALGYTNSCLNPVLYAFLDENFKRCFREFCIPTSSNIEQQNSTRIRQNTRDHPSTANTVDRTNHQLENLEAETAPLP

Take `COc1ccc(C[C@@H]2CN3C(=NC[C@@H]3C)N2CCNC(=O)c2ccc(C)c(Br)c2)cc1`: the EC50 is 0.118 µM in assay [1], less than 0.5 µM in assay [2], > 32 µM (inactive) in assay [3] and > 32 µM (inactive) on Mu-type opioid receptor. Also, the IC50 in assay [4] was > 32 µM (inactive).
Consider `Cc1ccc2c(c1)C(c1ccc(O)cc1)(c1ccc(O)cc1)C(=O)N2C`, for which the IC50 in [5] is 1.57 µM (active); in assay [6], 1 µM (active); at Cannabinoid receptor 2 [7], > 32 µM (inactive); in assay [8], > 32 µM (inactive); at Cannabinoid receptor 1 [9] it was 5.74 µM (active). The EC50 (on Cannabinoid receptor 1 [10]; on Cannabinoid receptor 2 [11]; in assay [12]) was > 32 µM (inactive) throughout.
`CCOC(=O)c1ccc(N2CCN(c3ccccc3F)CC2)c(NC(=O)Nc2ccccc2)c1`: the values for the IC50 in assay [13], in assay [14] and in assay [15] were > 100 µM (inactive), > 100 µM (inactive) and 8.66 µM (active), respectively.
